pIC50: −log10 of the molar value. “Also recorded” adds a separate entry of the source. Where only a bound is given, the exact number is not on record here.

From patent US20250213572A1, “TYK2 INHIBITORS AND USES THEREOF” (Takeda Pharmaceutical Company Limited, priority 2022, published 2025) come the findings set out here.

The test system of series [1] is psoriasis lesional skin markers (epidermal thickness, K16, psoriasis gene signatures). Kind of series: Study 102: skin punch biopsy PD markers (H&E, K16, RT-PCR, microarray). It counts as in vivo, human. The method, then: Skin PD markers are evaluated based on the change in epidermal thickness (via hematoxylin and eosin, or H&E staining) and the presence of the type I keratin K16 hyperproliferation marker.
Methods: mRNA from skin biopsies was isolated and assessed for targeted (RT-PCR) or global (microarray) gene expression. […] Numbers in parentheses are (probeset overlap of Nimbus PSTR and indicated dataset/Total # of probesets in dataset). Percent improvement is assessed as the mean % change (+/−SEM) in expression of the overlapping probesets toward baseline non-lesional expression (*** p<0.001 comparing treatment vs. placebo).

Series [2] deals with TYK2-dependent interferon gamma (IFNγ). Kind of series: Ex-vivo whole blood IL-12/IL-18 stimulated IFNγ production (pharmacodynamics). It counts as in vivo, human. Particulars: after oral dosing. The procedure:
Pharmacodynamic Results: The PD effect of treatment within this study was assessed using an ex-vivo immune-assay measuring the amount of TYK2-dependent interferon gamma (IFNγ) produced by whole blood samples that were stimulated with the cytokines IL-12 and IL-18 at baseline (predose) and following treatment.

The test system of series [3] is JAK2. Kind of series: JAK2 PBMC GMCSF pSTAT5. It is filed as cell-based. As to conditions: Homo sapiens.
Series [4] has as its target CYP450 3A4 (Homo sapiens, UniProt P08684). Kind of series: CYP450 inhibition, 3A4. It is filed as in vitro ADME. As to conditions: 3A4 (M).
Series [5] can be described thus: Nonclinical oral absorption across species (summary). It is filed as in vivo.
The nature of series [6]: In vivo pharmacokinetics, rat. Particulars: plasma.

CYP450 3A4, sequence (P08684 whole entry): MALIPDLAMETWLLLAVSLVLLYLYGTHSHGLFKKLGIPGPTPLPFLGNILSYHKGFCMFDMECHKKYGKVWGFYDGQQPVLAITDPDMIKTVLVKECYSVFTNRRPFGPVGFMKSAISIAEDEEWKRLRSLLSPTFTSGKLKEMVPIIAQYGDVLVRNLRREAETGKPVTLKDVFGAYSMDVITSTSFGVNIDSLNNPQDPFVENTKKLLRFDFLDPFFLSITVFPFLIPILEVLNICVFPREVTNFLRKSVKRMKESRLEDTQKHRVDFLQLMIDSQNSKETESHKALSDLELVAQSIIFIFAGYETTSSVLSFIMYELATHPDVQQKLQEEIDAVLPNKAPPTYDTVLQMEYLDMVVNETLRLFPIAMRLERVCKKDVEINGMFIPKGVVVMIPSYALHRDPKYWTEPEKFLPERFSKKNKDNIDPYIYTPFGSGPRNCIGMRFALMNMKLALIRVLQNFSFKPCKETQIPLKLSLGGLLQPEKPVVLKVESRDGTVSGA

`CNc1cc(Nc2cccn(-c3ccccn3)c2=O)nc2c(C(=O)N[C@@H]3CC[C@H]3OC)cnn12` [Compound 1, N-((1R,2R)-2-methoxycyclobutyl)-7-(methylamino)-5-((2-oxo-2H-[1,2′-bipyridin]-3-yl)amino)pyrazolo[1,5-a]pyrimidine-3-carboxamide]: the “expression of psoriasis-related genes (KRT16, IL17A, IL17F, IL22) in skin biopsies” value in series [1] (RT-PCR, 28 days treatment) was “suggestive decreases in the expression of several psoriasis-related genes”. The “improvement in the expression of skin transcriptomes previously associated with psoriasis in lesional skin” value in series [1] (microarray, 28 days treatment, p<0.001 compared to placebo) is reported as “up to 50%”. The “epidermal thickness and K16 biomarker expression” value in series [1] (three dosing cohorts, four weeks, 17 patients evaluated) is “reduced epidermal thickness and resolved expression of the K16 biomarker”. Moreover, in series [2], the “IFNγ production in cytokine-stimulated ex vivo whole blood” value was “greater reduction in IFNγ; also recorded: dose-dependent inhibition of IFNy; also recorded: rapid inhibition of interferon gamma (IFNγ) production”. Further, the pIC50 in series [3] is below 4.30. Besides, the IC50 in series [4] is above 8e-06 M. Besides, the absorption result in series [5] is “good absorption across species”. For the same compound, the clearance in series [6] (1 mg/kg, Rat, 1 mpk IV dose, read-out: Clp, obs) came out at 26 mL/min/kg. Further, in series [6] (1 mg/kg, Rat, 1 mpk IV dose, read-out: Vss), the Vd turned out to be 1.6 L/kg. Also, in series [6] (10 mg/kg, Rat, PO 10 mpk), the Tmax was determined as 1.7 h and the bioavailability worked out at 63%. In series [6] (rat), this compound showed a half-life of 1.2 h.

Usually pIC50 stands for the negative decadic logarithm of the IC50, by convention in mol/L. Higher therefore signals a low IC50. In general, IC50 refers to the concentration that inhibits the measured activity by half. Low values mean greater potency in that assay, high ones weaker potency in that assay. Usually Tmax stands for the time from dosing to the highest level. One may read the bioavailability as the share of a dose that reaches the circulation, judged against a reference dose that is usually intravenous. A high value points to much systemic uptake. What is called half-life is the time in which the quantity being followed falls by half. Read a high half-life as slow loss.
